Each molecule was assayed on COX-1 and COX-2 (assay: human whole blood assay (Chan, et al., JPET 290:551-560, 1999) for COX-1 and COX-2 inhibition). Conditions: approximate COX-2 selectivity ratio = IC50 for inhibition of COX-1 divided by IC50 for inhibition of COX-2, human whole blood assay.
Assay type: cell-based
Source text: The ability of a compound to inhibit COX-1 and/or COX-2 may be characterized by reference to a wide variety of assays. […] Moreover, for purposes of this patent application a COX-2 selectivity ratio is defined by the IC50 for the inhibition of COX-1 divided by the IC50 for the inhibition of COX-2 as measured by the Chan, et al., human whole blood assay.

First: COc1ccc2c(c1)c(CC(=O)O)c(C)n2C(=O)c1ccc(Cl)cc1 [Indomethacin]
Second: Cc1ccc(-c2ncc(Cl)cc2-c2ccc(S(C)(=O)=O)cc2)cn1 [Compound 13, 5-chloro-3-(4-(methylsulfonyl)phenyl)-2-(2-methyl-5-pyridinyl)pyridine]
The “COX-1/COX-2 ratio of the IC50” value of the first is lower: 0.4 for the first, 80 for the second.

Compared with `CS(=O)(=O)c1ccc(C2=C(c3ccccc3)C(=O)OC2)cc1` [Rofecoxib, 3-phenyl-4-(4-(methylsulfonyl)phenyl)-2-(5H)-furanone], `Cc1ccc(-c2cc(C(F)(F)F)nn2-c2ccc(S(N)(=O)=O)cc2)cc1` [Celecoxib] is lower in “COX-1/COX-2 ratio of the IC50” value: 35 for the first, 6.5 for the second.

In the case of `Cc1cnc(NC(=O)C2=C(O)c3ccccc3S(=O)(=O)N2C)s1` [Meloxicam], the “COX-1/COX-2 ratio of the IC50” value is reported as 2.

With `CCC(=O)NS(=O)(=O)c1ccc(-c2c(-c3ccccc3)noc2C)cc1` [Pericoxib, N-[[4-(5-methyl-3-phenylisoxazol-4-yl)phenyl]sulfonyl]propanamide] the “COX-1/COX-2 ratio of the IC50” value was over 100.
